Source: ChEMBL document CHEMBL4251753, “Discovery of Potent 2-Aryl-6,7-dihydro-5 H-pyrrolo[1,2- a]imidazoles as WDR5-WIN-Site Inhibitors Using Fragment-Based Methods and Structure-Based Design” (J Med Chem, 2018)

Test system: MV4-11
Experiment: Antiproliferative activity against human MV4-11 cells after 7 days by cell titer glo assay
Format: functional
Details: MV4-11, 168 h

Structure (SMILES) | GI50 [µM]
Cc1cc(C(=O)N[C@@H]2CCc3ccc(-c4cn5c(n4)CCC5)cc32)ccn1 | > 30
COc1cc(C(=O)N[C@@H]2CCc3ccc(-c4cn5c(n4)CCC5)cc32)cc(OC)c1C | 7.25
O=C(Cc1ccc(Cl)c(Cl)c1)N[C@@H]1CCc2ccc(-c3cn4c(n3)CCC4)cc21 | 8.89
COc1cc(C(=O)N[C@@H]2CCCc3ccc(-c4cn5c(n4)CCC5)cc32)ccc1C | 22.3
